Source: ChEMBL document CHEMBL5576120, “Discovery and In Vivo Efficacy of AZ-PRMT5i-1, a Novel PRMT5 Inhibitor with High MTA Cooperativity” (J Med Chem, 2024)
Converted amounts (≈) assume the structure as drawn.

Experiments:
[1] = Intrinsic clearance in rat hepatocytes assessed per million cells; type: ADME, cell-based, Hepatocyte; settings: read-out: CLH
physchem [2] = settings: buffer, pH 7.4
Description: Lipophilicity, logD of compound at pH 7.4

in vitro = settings: human, Caco-2
Description: Apparent permeability across apical to basal side of human Caco-2 cells at 10 uM

HCT-116 = assay: Cooperativity fold, ratio of IC50 for PRMT5 in human HCT-116 cells expressing wild-type MTAP assessed as decrease in SMDA level to IC50 for PRMT5 in human HCT-116 cells with MTAP KO assessed as decrease in SMDA level; type: cell-based
[3] = molecular target: Protein arginine N-methyltransferase 5 (Homo sapiens, UniProt O14744)
Protein arginine N-methyltransferase 5, sequence (O14744 whole entry): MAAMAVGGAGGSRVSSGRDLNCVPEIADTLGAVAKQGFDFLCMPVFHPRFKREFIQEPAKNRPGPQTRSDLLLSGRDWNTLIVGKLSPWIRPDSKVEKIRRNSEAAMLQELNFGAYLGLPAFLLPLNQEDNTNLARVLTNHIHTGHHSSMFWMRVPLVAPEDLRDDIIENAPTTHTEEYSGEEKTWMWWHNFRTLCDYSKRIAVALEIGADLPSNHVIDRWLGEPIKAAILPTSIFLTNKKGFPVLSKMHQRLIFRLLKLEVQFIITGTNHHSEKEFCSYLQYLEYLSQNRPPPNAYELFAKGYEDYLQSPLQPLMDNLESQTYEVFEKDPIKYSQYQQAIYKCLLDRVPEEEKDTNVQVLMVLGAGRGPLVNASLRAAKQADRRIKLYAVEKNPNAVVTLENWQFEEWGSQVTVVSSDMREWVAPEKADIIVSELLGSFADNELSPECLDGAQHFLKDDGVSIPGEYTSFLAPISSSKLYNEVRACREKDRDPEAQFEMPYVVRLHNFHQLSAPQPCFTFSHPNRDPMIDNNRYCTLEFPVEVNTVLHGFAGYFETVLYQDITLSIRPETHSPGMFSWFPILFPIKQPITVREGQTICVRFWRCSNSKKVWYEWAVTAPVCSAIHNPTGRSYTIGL
Description: Inhibition of PRMT5 in human HCT-116 cells with MTAP KO assessed as decrease in SMDA level incubated for 48 hrs by immunofluorescence analysis

physchem [4] = settings: phosphate buffer, pH 7.4
PRMT5/MEP50 complex [5] = molecular target: T1, PRMT5/MEP50 complex (Homo sapiens, UniProt O14744); assay: biochemical
T1 sequence (O14744 whole entry): as above
T1 sequence (Q9BQA1 whole entry, further chain): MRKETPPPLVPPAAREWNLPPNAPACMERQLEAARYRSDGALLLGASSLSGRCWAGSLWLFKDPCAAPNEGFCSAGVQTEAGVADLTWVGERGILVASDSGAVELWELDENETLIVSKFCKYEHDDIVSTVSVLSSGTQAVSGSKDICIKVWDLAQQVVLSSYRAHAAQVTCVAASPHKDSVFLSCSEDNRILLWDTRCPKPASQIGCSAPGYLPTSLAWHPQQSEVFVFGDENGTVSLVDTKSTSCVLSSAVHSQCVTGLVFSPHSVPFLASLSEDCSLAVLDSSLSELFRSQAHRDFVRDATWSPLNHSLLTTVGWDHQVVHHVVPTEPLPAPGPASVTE
Description: Inhibition of PRMT5 (1 to 637 residues)/MEP504 (2 to 342 residues)(unknown origin) expressed in baculovirus infected Sf21 insect cells using histone H4/SAM as substrate incubated for 5 hrs in presence of MTA by MTase Glo assay

[6] = Volume of distribution at steady state in Wistar Han rat at 1 mg/kg, po or 0.5 mg/kg, iv; type: ADME, organism-based; settings: in vivo
[7] = Oral bioavailability at steady state in Wistar Han rat at 1 mg/kg; type: ADME, organism-based; settings: in vivo
[8] = Half life in Wistar Han rat at 1 mg/kg, po or 0.5 mg/kg, iv; type: ADME, organism-based; settings: in vivo
[9] = Intrinsic clearance in human hepatocytes assessed per million cells; type: ADME, cell-based, Hepatocyte; settings: read-out: CLH
PRMT5/MEP50 complex [10] = molecular target: T1, PRMT5/MEP50 complex; assay: biochemical; remark: listed apart in the source
Description: Inhibition of PRMT5 (1 to 637 residues)/MEP504 (2 to 342 residues)(unknown origin) expressed in baculovirus infected Sf21 insect cells using histone H4/SAM as substrate incubated for 5 hrs by MTase Glo assay

[11] = Unbound protein binding in rat plasma by equilibrium dialysis; type: ADME, cell-free
Translocator protein = Translocator protein (Homo sapiens, UniProt P30536); assay: Inhibition of human TSPO
Translocator protein, sequence (P30536 whole entry): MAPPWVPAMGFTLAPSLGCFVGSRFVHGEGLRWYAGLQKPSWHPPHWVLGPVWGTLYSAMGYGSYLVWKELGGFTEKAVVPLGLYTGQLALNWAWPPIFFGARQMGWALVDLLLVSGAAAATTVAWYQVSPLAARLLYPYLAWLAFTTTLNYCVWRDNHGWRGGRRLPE

[12] = Volume of distribution at steady state in CD-1 mouse at 1 mg/kg, po or 0.5 mg/kg, iv; type: ADME, organism-based; settings: in vivo
[13] = Oral bioavailability in CD-1 mouse at 1 mg/kg; type: ADME, organism-based; settings: in vivo
[14] = Half life in CD-1 mouse at 1 mg/kg, po or 0.5 mg/kg, iv; type: ADME, organism-based; settings: in vivo
Lu-99 cell line [15] = assay: Antiproliferative activity against human Lu-99 cells incubated for 7 days; type: functional, cell-based; settings: Lu-99, 168 h
Lu-99 cell line [16] = assay: Antitumor activity against human Lu-99 cells xenografted in nude mouse at 100 mg/kg, po bid measured after 21 days relative to control; type: functional; settings: Lu-99, 504 h, time 21 day, read-out: TGI
Lu-99 cell line [17] = assay: Antitumor activity against human Lu-99 cells xenografted in nude mouse assessed as tumor growth inhibition administered orally twice a day measured for 21 days; type: functional, cell-based; settings: dose 1-10 mg/kg, route po, time 21.0 day
Lu-99 cell line [18] = assay: Antitumor activity against human Lu-99 cells xenografted in nude mouse assessed as inhibition of SDMA level administered orally twice a day measured for 21 days; type: functional, cell-based; settings: dose 1-10 mg/kg, route po, time 21.0 day
Lu-99 cell line [19] = assay: Antitumor activity against human Lu-99 cells xenografted in nude mouse assessed as inhibition of SDMA level at 100 mg/kg, po bid measured after 21 days relative to control; type: functional; settings: Lu-99, 504 h, time 21 day
[20] = Toxicity in nude mouse xenografted with human Lu-99 cells assessed as body weight loss upto 100 mg/kg, po bid measured for 21 days; type: organism-based; settings: in vivo, 504 h, time 21 day
[21] = Antitumor activity against human PDX GA2254 cells xenografted in Balb/c nude mouse assessed as tumor regression at 50 mg/kg, po bid measured for 21 days relative to control; type: functional; settings: time 21 day
[22] = Antitumor activity against human PDX GA2254 cells xenografted in Balb/c nude mouse at 10 mg/kg, po bid measured for 21 days relative to control; type: functional; settings: PDX GA2254, 504 h, time 21 day, read-out: TGI
[23] = Antitumor activity against human PDX GA2254 cells xenografted in Balb/c nude mouse assessed as inhibition of SDMA level at 50 mg/kg, po bid measured for 21 days relative to control; type: functional; settings: PDX GA2254, 504 h, time 21 day, read-out: TGI
[24] = Antitumor activity against human PDX GA2254 cells xenografted in Balb/c nude mouse assessed as inhibition of SDMA level at 10 mg/kg, po bid measured for 21 days relative to control; type: functional; settings: PDX GA2254, 504 h, time 21 day, read-out: TGI
[25] = Antitumor activity against human PDX GA2254 cells xenografted in Balb/c nude mouse assessed as inhibition of SDMA level at 1 mg/kg, po bid measured for 21 days relative to control; type: functional; settings: PDX GA2254, 504 h, time 21 day, read-out: TGI

Row | SMILES | hepatocyte CLint [1] | logD (physchem [2]) | Papp A→B at 10 µM (in vitro) | IC50 [3] | further results
1 | Cn1c(CN2C(=O)c3cc(F)ccc3[C@]23CCN(Cc2ccc(F)cc2)C3=O)cc2nc(N)ccc21 | 21 µL/min/1e6 cells | 2.2 | – | 4800 nM | Ratio IC50 (HCT-116): > 5; solubility at 24 h (physchem [4]): 110 µM (≈ 53.6 µg/mL)
2 | O=C1c2cc(F)ccc2[C@]2(CCN(Cc3ccc(F)cc3)C2=O)N1Cc1cc2ccncc2[nH]1 | 6 µL/min/1e6 cells | 2.8 | – | 6400 nM | Ratio IC50 (HCT-116): > 5; IC50 (PRMT5/MEP50 complex [5]): 370 nM
3 | COc1cccc2c1C(=O)N(Cc1cnc(NC(=N)N)s1)C2C(=O)NCc1ccc(F)cc1 (configuration not stated) | 11 µL/min/1e6 cells | 1.9 | – | – | –
4 | CN(Cc1ccc(F)cc1)C(=O)C1c2ccccc2C(=O)N1Cc1cnc(NC(=N)N)s1 (configuration not stated) | 84 µL/min/1e6 cells | 2 | – | – | –
5 | N=C(N)Nc1ncc(CN2C(=O)c3ccccc3C2C(=O)N(Cc2ccc(F)cc2)C2CC2)s1 (configuration not stated) | 64 µL/min/1e6 cells | 2.6 | – | – | –
6 | Nc1ccc2oc(CN3C(=O)c4cc(F)ccc4[C@]34CCN(Cc3ccc(F)cc3)C4=O)cc2n1 | 59 µL/min/1e6 cells | 2.3 | 72 ×10⁻⁶ cm/s | – | solubility at 24 h (physchem [4]): 243 µM (≈ 115 µg/mL)
7 | Nc1ccc2[nH]c(CN3C(=O)c4cc(F)ccc4[C@]34CCN(Cc3ccc(F)cc3)C4=O)nc2n1 | 5 µL/min/1e6 cells | – | – | 1300 nM | hepatocyte CLint [9]: < 1 µL/min/1e6 cells
8 | COc1ccc2c(c1)C(=O)N(Cc1cnc(NC(=N)N)s1)C2C(=O)NCc1ccc(F)cc1 (configuration not stated) | 22 µL/min/1e6 cells | 2.3 | – | 380 nM | Ratio IC50 (HCT-116): 7.7; IC50 (PRMT5/MEP50 complex [5]): 12 nM; IC50 (PRMT5/MEP50 complex [10]): 0.051 µM
9 | N#Cc1ccc2c(c1)C(C(=O)NCc1ccc(F)cc1)N(Cc1cnc(NC(=N)N)s1)C2=O (configuration not stated) | 13 µL/min/1e6 cells | 2.1 | – | – | –
10 | N=C(N)Nc1ncc(CN2C(=O)c3ccccc3C2C(=O)NCc2ccc(F)cc2)s1 (configuration not stated) | 34 µL/min/1e6 cells | – | – | – | fraction unbound [11]: 0.19; Vdss [6]: 1.6 L/kg; bioavailability [7]: 2%; half-life [8]: 66 min
11 | Nc1nc2cc(CN3C(=O)c4cc(F)ccc4[C@]34CCN(Cc3ccc(F)cc3)C4=O)[nH]c2cc1F | < 5 µL/min/1e6 cells | 2.8 | 48 ×10⁻⁶ cm/s | – | Vdss [6]: 2.4 L/kg; bioavailability [7]: 35%; half-life [8]: 108 min; hepatocyte CLint [9]: < 1 µL/min/1e6 cells; Ki (Translocator protein): 610 nM; Vdss [12]: 2.1 L/kg; bioavailability [13]: 101%; half-life [14]: 204 min; IC50 (Lu-99 cell line [15]): 124 nM; inhibition in vivo at 100 mg/kg (Lu-99 cell line [16]): 71%; inhibition (Lu-99 cell line [17]): Dose-Dependent Effect; inhibition (Lu-99 cell line [18]): Dose-Dependent Effect; inhibition in vivo at 100 mg/kg (Lu-99 cell line [19]): 95%; Activity [20]: Non-Toxic; Activity [21]: 50%; inhibition in vivo at 10 mg/kg [22]: 33%; inhibition in vivo at 50 mg/kg [23]: 97%; inhibition in vivo at 10 mg/kg [24]: 93%; inhibition in vivo at 1 mg/kg [25]: 51%; solubility at 24 h (physchem [4]): 8 µM (≈ 3.93 µg/mL)
12 | N=C(N)Nc1nnc(CN2C(=O)c3ccccc3C2C(=O)NCc2ccc(F)cc2)s1 (configuration not stated) | 23 µL/min/1e6 cells | 1.7 | – | – | –
13 | Nc1ccc2cc(CN3C(=O)c4cc(F)ccc4[C@]34CCN(Cc3ccc(F)cc3)C4=O)[nH]c2n1 | 12 µL/min/1e6 cells | 2.5 | 31 ×10⁻⁶ cm/s | 140 nM | Ratio IC50 (HCT-116): 31; IC50 (PRMT5/MEP50 complex [5]): 9 nM
14 | Nc1ccc2[nH]c(CN3C(=O)c4cc(F)ccc4[C@]34CCN(Cc3ccc(F)cc3)C4=O)cc2n1 | 13 µL/min/1e6 cells | 2.2 | 2.7 ×10⁻⁶ cm/s | – | Vdss [6]: 7.8 L/kg; half-life [8]: 30 min; hepatocyte CLint [9]: < 1 µL/min/1e6 cells; Vdss [12]: 2.7 L/kg; bioavailability [13]: 3%; half-life [14]: 53.4 min; solubility at 24 h (physchem [4]): 106 µM (≈ 50.2 µg/mL)
15 | COc1cc(N)nc2cc(CN3C(=O)c4cc(F)ccc4[C@]34CCN(Cc3ccc(F)cc3)C4=O)[nH]c12 | 7 µL/min/1e6 cells | 1.8 | 1.4 ×10⁻⁶ cm/s | 4 nM | Ratio IC50 (HCT-116): 7.2; solubility at 24 h (physchem [4]): 610 µM (≈ 307 µg/mL)
16 | O=C1c2cc(F)ccc2[C@]2(CCN(Cc3ccc(F)cc3)C2=O)N1Cc1cc2cnccc2[nH]1 | 3 µL/min/1e6 cells | 2.4 | – | > 30000 nM | IC50 (PRMT5/MEP50 complex [5]): 970 nM
17 | Nc1ccc2ncc(CN3C(=O)c4cc(F)ccc4[C@]34CCN(Cc3ccc(F)cc3)C4=O)cc2n1 | 22 µL/min/1e6 cells | 2.2 | 27 ×10⁻⁶ cm/s | 240 nM | Ratio IC50 (HCT-116): 18; solubility at 24 h (physchem [4]): 55 µM (≈ 26.7 µg/mL)
18 | Nc1cc(C(F)F)c2[nH]c(CN3C(=O)c4cc(F)ccc4[C@]34CCN(Cc3ccc(F)cc3)C4=O)cc2n1 | 15 µL/min/1e6 cells | 2.9 | 56 ×10⁻⁶ cm/s | – | solubility at 24 h (physchem [4]): 86 µM (≈ 45 µg/mL)
19 | O=C1c2cc(F)ccc2[C@]2(CCN(Cc3ccc(F)cc3)C2=O)N1Cc1cc2ncccc2[nH]1 | 246 µL/min/1e6 cells | 3.1 | – | – | –

Continued, in another order:

Row | hepatocyte CLint [1] | logD (physchem [2]) | Papp A→B at 10 µM (in vitro) | IC50 [3] | SMILES | further results
20 | 193 µL/min/1e6 cells | 3.4 | 29 ×10⁻⁶ cm/s | – | O=C1c2cc(F)ccc2[C@]2(CCN(Cc3ccc(F)cc3)C2=O)N1Cc1cc2cccnc2[nH]1 | –
21 | 188 µL/min/1e6 cells | 3.4 | – | – | O=C1c2cc(F)ccc2[C@@]2(CCN(Cc3ccc(F)cc3)C2=O)N1Cc1cc2cccnc2[nH]1 | –
22 | 19 µL/min/1e6 cells | 2.7 | 14 ×10⁻⁶ cm/s | – | CNC(=N)Nc1ncc(CN2C(=O)c3cc(F)ccc3C2C(=O)NCc2ccc(F)cc2)s1 (configuration not stated) | Vdss [6]: 2.6 L/kg; bioavailability [7]: 20%; half-life [8]: 42.6 min; solubility at 24 h (physchem [4]): 8 µM (≈ 3.76 µg/mL)
23 | 112 µL/min/1e6 cells | 3.4 | – | – | O=C(NCc1ccc(F)cc1)C1c2ccc(F)cc2C(=O)N1Cc1cc2ncccc2[nH]1 (configuration not stated) | –
24 | 70 µL/min/1e6 cells | 3 | – | – | O=C(NCc1ccc(F)cc1)C1c2ccccc2C(=O)N1Cc1cc2ncccc2[nH]1 (configuration not stated) | –
25 | 123 µL/min/1e6 cells | 3.2 | – | – | O=C(NCc1ccc(F)cc1)C1c2ccc(F)cc2C(=O)N1Cc1cc2cccnc2[nH]1 (configuration not stated) | –
26 | 17 µL/min/1e6 cells | 0.9 | – | > 30000 nM | N=C(N)Nc1cc(CN2C(=O)c3ccccc3C2C(=O)NCc2ccc(F)cc2)ccn1 (configuration not stated) | IC50 (PRMT5/MEP50 complex [5]): 2950 nM; IC50 (PRMT5/MEP50 complex [10]): 27 µM
27 | 13 µL/min/1e6 cells | 2.5 | – | – | N=C(N)Nc1ncc(CN2C(=O)c3cc(F)ccc3C2C(=O)NCc2ccc(F)cc2)s1 (configuration not stated) | –
28 | 131 µL/min/1e6 cells | 3.3 | 90 ×10⁻⁶ cm/s | – | O=C(NCc1ccc(F)cc1)C1c2ccccc2C(=O)N1Cc1cc2cccnc2[nH]1 (configuration not stated) | –
